Data published in ChEMBL document CHEMBL1201862, “PubChem BioAssay data set” (2004).
Calls of active or inactive are those of the source.

What was measured:
[1] = target: Alkaline phosphatase, placental type (Homo sapiens, UniProt P05187); test: PLAP enzyme inhibitors, confirmation, biochemical, luminescence (AID 1512); type: functional
Leucine aminopeptidase = target: T1, Leucine aminopeptidase (Plasmodium falciparum 3D7, UniProt Q8IL11); test: P. falciparum M17LAP inhibitors, primary screen, biochemical, fluorogenic H-Leu-NHMec substrate, 1536-well (AID 1619); type: functional
T1 sequence (Q8IL11 whole entry): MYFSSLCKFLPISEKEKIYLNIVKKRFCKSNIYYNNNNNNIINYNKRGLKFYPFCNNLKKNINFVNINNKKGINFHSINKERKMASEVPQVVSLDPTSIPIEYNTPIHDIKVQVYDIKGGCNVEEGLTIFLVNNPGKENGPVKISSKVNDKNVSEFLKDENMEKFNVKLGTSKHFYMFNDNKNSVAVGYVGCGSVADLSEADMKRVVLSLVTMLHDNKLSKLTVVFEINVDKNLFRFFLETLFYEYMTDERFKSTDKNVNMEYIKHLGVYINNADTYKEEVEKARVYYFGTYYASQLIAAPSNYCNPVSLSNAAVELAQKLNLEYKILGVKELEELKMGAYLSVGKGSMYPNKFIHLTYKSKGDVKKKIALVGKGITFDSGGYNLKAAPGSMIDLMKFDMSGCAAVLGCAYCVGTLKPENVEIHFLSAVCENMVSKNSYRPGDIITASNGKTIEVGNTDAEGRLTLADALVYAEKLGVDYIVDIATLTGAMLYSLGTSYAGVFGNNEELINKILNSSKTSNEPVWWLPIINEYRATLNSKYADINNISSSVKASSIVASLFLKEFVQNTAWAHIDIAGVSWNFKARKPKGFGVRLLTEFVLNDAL

[2] = target: T2, Alkaline phosphatase, tissue-nonspecific isozyme (Homo sapiens, UniProt P05186); test: human TNAP enzyme inhibitors, SAR follow-up, biochemical, luminescent, dose response (AID 1056)
T2 sequence (P05186 whole entry): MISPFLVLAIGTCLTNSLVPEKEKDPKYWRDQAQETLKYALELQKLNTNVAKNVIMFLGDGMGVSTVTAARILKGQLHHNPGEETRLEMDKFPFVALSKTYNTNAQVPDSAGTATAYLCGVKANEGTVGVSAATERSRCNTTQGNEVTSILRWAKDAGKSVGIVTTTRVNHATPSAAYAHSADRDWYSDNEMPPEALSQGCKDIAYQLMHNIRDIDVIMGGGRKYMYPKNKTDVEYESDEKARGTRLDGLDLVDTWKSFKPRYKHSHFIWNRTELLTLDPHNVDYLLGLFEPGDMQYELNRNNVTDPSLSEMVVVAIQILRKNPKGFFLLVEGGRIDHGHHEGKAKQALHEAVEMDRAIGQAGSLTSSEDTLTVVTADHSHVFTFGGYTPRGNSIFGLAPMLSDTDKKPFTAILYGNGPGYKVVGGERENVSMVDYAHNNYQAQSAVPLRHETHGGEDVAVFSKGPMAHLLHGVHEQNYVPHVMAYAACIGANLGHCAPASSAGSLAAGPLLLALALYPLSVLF

[3] = target: Signal transducer and activator of transcription 1-alpha/beta (Homo sapiens, UniProt P42224); test: STAT3 inhibitors, late-stage profile, late-stage follow-up, cell-based, STAT1 panel, qPCR, cytotoxicity, panel member STAT1 Inhibition (AID 2078)
[4] = target: Signal transducer and activator of transcription 3 (Homo sapiens, UniProt P40763); test: STAT3 inhibitors, late-stage profile, late-stage follow-up, cell-based, STAT1 panel, qPCR, cytotoxicity, panel member STAT3 Inhibition (AID 2078)
Hexokinase-1 = target: T3, Hexokinase-1 (Homo sapiens, UniProt P19367); test: hexokinase 1 activators, dose response, selectivity assay for HKDC1 activator project, biochemical (AID 504762); type: functional
T3 sequence (P19367 whole entry): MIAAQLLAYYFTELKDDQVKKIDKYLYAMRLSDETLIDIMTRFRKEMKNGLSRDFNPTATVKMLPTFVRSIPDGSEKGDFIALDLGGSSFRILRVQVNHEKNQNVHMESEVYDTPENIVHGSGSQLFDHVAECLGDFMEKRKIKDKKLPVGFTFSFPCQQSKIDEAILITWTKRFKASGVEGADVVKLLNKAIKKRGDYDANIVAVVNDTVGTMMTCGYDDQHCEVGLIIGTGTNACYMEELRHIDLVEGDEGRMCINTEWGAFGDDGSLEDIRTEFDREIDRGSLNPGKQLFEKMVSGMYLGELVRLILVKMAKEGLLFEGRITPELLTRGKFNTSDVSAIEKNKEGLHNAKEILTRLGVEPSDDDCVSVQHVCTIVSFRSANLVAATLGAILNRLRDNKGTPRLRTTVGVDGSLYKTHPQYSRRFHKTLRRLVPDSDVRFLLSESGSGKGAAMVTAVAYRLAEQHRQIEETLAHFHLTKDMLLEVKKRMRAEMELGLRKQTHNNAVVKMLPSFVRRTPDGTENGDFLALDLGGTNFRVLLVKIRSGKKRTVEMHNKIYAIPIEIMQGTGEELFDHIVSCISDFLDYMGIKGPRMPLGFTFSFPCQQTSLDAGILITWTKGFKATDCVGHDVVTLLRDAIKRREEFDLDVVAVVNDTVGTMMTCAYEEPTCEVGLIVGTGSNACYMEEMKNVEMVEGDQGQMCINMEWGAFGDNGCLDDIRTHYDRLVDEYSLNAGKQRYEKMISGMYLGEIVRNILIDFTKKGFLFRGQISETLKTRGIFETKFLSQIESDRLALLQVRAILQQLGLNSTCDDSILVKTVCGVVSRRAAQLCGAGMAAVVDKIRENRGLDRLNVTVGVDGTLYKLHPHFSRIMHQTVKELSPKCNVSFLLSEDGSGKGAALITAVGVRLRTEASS

Streptococcus = test: Group A Streptococcus viability loss, dose response, counter-screen for streptokinase expression inhibitor project, luminescence, BacTiterGlo (AID 1915); type: functional, organism-based;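 note: potency for reduction of bacterial viability or growth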
Hexokinase HKDC1 = target: T4, Hexokinase HKDC1 (Homo sapiens, UniProt Q2TB90); test: HKDC1 hexokinase activators, dose response, biochemical, W721R variant (AID 504730); type: functional
T4 sequence (Q2TB90 whole entry): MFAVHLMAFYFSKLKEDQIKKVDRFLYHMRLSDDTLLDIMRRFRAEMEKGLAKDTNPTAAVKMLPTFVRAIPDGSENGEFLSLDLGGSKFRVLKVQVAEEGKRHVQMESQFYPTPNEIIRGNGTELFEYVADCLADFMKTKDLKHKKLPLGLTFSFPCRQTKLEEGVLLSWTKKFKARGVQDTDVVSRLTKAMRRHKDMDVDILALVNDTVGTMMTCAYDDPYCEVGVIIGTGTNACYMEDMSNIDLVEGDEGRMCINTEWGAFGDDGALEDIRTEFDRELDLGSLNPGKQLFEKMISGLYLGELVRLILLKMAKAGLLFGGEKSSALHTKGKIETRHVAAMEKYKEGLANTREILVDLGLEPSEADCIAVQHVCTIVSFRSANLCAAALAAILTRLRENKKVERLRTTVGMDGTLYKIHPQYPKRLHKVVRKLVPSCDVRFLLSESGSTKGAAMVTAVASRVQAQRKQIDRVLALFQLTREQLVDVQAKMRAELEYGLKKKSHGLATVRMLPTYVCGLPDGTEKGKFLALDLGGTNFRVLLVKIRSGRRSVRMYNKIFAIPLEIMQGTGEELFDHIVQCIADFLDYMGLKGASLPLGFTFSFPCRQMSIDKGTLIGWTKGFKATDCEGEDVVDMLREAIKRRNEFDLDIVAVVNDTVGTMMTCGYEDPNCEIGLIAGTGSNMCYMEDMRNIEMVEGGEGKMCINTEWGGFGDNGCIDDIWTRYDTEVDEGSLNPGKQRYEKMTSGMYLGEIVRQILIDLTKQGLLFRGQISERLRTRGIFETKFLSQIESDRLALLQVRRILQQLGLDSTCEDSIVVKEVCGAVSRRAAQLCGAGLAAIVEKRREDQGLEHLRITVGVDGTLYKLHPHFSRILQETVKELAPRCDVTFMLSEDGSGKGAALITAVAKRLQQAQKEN

Streptokinase A = target: T5, Streptokinase A (Streptococcus pyogenes serotype M1, UniProt P10520); test: S. pyogenes streptokinase expression inhibitors, potency, dose response, plasminogen activation absorbance, OD405 (AID 1914); type: functional, Streptococcus pyogenes M1 GAS;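 note: secreted streptokinase activity via plasminogen activation per viability signal from cell pellet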
T5 sequence (P10520 whole entry): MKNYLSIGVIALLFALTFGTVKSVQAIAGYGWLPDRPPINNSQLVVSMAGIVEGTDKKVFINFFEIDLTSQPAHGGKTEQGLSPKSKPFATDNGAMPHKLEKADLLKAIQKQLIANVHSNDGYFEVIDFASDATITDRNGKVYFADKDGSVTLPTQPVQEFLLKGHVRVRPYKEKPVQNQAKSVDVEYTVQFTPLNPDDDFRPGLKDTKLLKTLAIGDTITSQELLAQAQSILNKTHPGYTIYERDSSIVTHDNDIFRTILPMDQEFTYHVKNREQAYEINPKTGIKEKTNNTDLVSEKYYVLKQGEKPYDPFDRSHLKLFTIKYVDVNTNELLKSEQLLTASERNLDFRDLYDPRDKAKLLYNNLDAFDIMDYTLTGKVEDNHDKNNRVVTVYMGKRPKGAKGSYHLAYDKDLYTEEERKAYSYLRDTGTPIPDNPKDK

[5] = tested on: Streptococcus sp. 'group A'; test: growth inhibition of control SK(-) GAS strain, dose response, counter-screen for streptokinase expression inhibitor project, luminescence, kanamycin, BacTiterGlo, confirmation (AID 1900); type: functional, organism-based
INS1 = test: beta cell apoptosis inhibitors, cytokine rescue, dose response, luminescence, retest (AID 449756); type: functional, cell-based; details: Rattus norvegicus;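 note: cell death triggered by IL-1 beta plus TNF-alpha plus IFN-gamma mixture; protective hits raise ATP signal compared with cytokine alone wells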
[6] = HepG2 cell cytotoxicity, dose response, cytotoxicity control for Shn3 inhibitor project, CellTiter-Glo, cherry-picked (AID 624134); type: functional, cell-based
[7] = control 3'UTR Renilla luciferase suppression, dose response, counter-screen for Shn3 inhibitor project, cell-based, Clone20-Shn3RL, cherry-picked (AID 624133); type: functional
[8] = target: T6, Kappa-type opioid receptor (Homo sapiens, UniProt P41145); test: KOR agonist analogs, imaging readout, SAR follow-up, image-based (AID 2359); type: functional
Beta-galactosidase = Beta-galactosidase (Escherichia coli, UniProt Q8VNN2); type: functional
[9] = target: T6, Kappa-type opioid receptor; test: kappa opioid receptor blockers, cell-based, luminescence, beta-arrestin, SAR follow-up (AID 2285); type: functional
[10] = target: T6, Kappa-type opioid receptor; test: KOR antagonists by imaging, SAR follow-up, image-based (AID 2348); type: functional
Mu-type opioid receptor [11] = target: T7, Mu-type opioid receptor (Homo sapiens, UniProt P35372); test: MOR agonists by imaging, SAR follow-up, image-based (AID 2352); type: functional
[12] = target: Dual specificity protein phosphatase 3 (Homo sapiens, UniProt P51452); test: SAR VHR1 Fluorescent Assay for In Vitro dose response studies Set 2. [Related pubchem assays (depositor defined):AID1654, AID1661, AID1878]; type: functional
[13] = target: T8, Tyrosine-protein phosphatase non-receptor type 7 (Homo sapiens, UniProt P35236); test: SAR analysis of chemical inhibitors of HePTP using a Fluorescent assay - Set 2. [Related pubchem assays (depositor defined):AID1059, AID1077, AID1661, AID2085, AID521]; type: functional
T8 sequence (P35236 whole entry): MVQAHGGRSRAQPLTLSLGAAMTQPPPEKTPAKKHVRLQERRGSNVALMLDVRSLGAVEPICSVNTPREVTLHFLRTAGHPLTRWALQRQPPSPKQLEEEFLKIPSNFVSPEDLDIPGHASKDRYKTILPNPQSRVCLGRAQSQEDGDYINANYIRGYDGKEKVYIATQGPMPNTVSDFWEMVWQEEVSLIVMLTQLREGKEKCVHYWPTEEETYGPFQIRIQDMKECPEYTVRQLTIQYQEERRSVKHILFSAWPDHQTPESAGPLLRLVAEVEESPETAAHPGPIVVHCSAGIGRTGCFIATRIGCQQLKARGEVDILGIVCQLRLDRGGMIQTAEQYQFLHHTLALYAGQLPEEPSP

[14] = target: T6, Kappa-type opioid receptor; type: functional
[15] = target: T9, Delta-type opioid receptor (Homo sapiens, UniProt P41143); test: DOR antagonists, SAR follow-up, image-based (AID 2357); type: functional
[16] = target: T9, Delta-type opioid receptor; test: DOR agonists, SAR follow-up, image-based (AID 2370); type: functional
[17] = target: T6, Kappa-type opioid receptor; type: functional; remark: listed apart in the source
Mu-type opioid receptor [18] = target: T7, Mu-type opioid receptor; test: MOR antagonists, SAR follow-up, image-based (AID 2420); type: functional;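 note: compounds added before stimulation of receptor with agonist DAMGO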

T6 sequence (P41145 whole entry): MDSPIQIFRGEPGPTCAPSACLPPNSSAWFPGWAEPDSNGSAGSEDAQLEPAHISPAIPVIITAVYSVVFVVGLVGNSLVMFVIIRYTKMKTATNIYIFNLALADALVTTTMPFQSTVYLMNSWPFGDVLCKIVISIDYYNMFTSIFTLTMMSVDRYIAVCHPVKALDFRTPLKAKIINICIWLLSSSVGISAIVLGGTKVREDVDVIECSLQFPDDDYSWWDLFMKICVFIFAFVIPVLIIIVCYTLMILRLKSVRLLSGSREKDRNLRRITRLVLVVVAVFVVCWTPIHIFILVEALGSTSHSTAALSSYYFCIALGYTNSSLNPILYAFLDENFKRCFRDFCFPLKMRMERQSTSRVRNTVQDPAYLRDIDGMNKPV
T7 sequence (P35372 whole entry): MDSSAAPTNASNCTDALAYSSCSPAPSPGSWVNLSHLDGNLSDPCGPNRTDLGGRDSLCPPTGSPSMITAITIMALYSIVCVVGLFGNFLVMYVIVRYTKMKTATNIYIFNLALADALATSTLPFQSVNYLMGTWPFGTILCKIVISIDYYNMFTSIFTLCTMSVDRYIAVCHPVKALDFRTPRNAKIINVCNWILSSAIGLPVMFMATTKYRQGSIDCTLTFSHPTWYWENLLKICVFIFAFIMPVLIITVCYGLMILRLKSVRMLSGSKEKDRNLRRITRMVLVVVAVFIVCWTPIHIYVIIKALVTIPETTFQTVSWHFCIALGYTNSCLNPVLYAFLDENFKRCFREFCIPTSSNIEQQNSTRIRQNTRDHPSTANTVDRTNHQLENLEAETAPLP
T9 sequence (P41143 whole entry): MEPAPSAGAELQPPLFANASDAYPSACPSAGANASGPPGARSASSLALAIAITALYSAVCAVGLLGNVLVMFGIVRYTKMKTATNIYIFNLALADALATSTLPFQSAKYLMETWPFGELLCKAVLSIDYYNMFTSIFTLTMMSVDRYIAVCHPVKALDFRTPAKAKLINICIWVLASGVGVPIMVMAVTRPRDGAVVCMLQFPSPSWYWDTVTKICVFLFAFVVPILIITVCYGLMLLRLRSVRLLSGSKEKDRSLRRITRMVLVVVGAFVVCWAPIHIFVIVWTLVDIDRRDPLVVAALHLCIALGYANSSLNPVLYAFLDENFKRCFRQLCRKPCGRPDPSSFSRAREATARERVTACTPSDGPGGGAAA
Sequence of Signal transducer and activator of transcription 1-alpha/beta (P42224 whole entry): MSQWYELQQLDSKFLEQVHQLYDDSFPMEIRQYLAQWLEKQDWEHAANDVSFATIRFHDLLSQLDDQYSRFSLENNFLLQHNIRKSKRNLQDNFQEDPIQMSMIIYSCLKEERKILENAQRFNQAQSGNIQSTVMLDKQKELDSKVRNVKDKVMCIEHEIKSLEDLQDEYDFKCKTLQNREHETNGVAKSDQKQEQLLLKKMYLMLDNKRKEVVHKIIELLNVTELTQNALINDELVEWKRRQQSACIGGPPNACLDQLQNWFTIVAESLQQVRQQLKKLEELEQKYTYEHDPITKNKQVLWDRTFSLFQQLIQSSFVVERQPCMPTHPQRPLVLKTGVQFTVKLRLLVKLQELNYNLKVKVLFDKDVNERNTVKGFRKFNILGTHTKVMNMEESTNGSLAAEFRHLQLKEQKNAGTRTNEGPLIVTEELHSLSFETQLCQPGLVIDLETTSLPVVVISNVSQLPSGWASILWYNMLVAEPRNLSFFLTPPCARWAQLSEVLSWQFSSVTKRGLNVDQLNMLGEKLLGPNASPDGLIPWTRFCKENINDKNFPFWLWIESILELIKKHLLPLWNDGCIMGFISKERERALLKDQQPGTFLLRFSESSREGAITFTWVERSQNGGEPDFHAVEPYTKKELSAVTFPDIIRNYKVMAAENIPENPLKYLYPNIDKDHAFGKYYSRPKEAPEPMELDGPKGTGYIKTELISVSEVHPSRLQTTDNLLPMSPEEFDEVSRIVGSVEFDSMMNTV
Sequence of Signal transducer and activator of transcription 3 (P40763 whole entry): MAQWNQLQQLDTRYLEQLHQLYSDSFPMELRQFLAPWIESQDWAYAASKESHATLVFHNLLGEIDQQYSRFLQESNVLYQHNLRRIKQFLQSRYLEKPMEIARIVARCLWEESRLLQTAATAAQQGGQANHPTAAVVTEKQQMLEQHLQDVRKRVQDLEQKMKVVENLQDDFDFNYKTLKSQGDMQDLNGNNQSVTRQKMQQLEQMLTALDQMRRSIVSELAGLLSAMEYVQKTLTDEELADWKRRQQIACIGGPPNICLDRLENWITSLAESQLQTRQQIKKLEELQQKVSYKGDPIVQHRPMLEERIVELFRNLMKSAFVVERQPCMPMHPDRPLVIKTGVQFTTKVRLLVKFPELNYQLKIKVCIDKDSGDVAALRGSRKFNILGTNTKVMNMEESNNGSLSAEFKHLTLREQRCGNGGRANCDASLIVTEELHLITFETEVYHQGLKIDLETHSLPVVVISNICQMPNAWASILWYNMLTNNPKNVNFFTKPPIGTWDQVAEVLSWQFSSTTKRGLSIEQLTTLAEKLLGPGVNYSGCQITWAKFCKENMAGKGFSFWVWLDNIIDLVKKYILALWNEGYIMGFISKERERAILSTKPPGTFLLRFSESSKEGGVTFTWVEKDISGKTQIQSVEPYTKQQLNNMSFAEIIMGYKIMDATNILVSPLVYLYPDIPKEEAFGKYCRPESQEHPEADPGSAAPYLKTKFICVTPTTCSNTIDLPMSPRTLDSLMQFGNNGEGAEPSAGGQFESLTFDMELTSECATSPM
Sequence of Beta-galactosidase (Q8VNN2 whole entry): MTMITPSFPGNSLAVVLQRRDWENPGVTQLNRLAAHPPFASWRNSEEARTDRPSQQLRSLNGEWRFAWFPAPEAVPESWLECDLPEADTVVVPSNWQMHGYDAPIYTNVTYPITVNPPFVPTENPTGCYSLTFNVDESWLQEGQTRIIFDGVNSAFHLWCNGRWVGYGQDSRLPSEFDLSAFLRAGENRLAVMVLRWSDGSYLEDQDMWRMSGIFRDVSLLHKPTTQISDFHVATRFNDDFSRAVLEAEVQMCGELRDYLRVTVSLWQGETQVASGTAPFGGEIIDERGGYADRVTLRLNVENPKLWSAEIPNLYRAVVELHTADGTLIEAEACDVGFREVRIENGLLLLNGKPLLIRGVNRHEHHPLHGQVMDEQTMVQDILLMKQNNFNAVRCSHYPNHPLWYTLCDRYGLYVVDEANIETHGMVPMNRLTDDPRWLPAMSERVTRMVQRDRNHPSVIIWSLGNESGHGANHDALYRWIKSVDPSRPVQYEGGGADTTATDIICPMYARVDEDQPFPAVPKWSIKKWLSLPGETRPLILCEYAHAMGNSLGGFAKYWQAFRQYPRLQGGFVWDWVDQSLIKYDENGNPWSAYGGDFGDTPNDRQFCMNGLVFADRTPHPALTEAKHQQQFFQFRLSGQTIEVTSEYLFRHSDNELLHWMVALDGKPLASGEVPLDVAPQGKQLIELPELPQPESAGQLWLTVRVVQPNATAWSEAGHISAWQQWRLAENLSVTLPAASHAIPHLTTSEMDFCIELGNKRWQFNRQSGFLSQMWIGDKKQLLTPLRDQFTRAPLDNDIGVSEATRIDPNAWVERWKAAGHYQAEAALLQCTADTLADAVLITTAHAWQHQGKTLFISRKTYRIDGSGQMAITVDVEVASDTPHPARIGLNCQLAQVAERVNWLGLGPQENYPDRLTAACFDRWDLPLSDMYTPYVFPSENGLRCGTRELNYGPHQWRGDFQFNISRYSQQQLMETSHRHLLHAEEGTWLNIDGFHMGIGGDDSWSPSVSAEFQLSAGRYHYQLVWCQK
Sequence of Dual specificity protein phosphatase 3 (P51452 whole entry): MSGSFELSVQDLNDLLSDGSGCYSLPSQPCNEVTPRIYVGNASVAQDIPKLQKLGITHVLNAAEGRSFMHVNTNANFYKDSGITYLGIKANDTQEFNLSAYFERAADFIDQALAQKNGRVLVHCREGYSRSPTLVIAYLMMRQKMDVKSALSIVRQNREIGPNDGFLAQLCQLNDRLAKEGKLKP
Sequence of Alkaline phosphatase, placental type (P05187 whole entry): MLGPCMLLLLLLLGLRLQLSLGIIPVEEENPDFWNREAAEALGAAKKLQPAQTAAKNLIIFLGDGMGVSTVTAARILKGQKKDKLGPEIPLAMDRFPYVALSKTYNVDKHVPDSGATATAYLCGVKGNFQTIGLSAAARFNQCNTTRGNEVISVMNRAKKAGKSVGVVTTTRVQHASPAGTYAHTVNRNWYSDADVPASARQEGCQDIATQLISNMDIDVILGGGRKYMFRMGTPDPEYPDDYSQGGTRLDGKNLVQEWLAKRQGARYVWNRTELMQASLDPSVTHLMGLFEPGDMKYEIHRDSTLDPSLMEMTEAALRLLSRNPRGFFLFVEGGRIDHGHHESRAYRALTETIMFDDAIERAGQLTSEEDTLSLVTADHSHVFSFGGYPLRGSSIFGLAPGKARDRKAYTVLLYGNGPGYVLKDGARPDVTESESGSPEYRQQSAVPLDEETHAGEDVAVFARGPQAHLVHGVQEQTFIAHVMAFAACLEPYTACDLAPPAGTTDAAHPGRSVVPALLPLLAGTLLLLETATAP

CCn1c(SCC(=O)c2ccc(O)c(O)c2)nnc1-c1ccccc1
IC50 [1]: 4.32 µM (active)
IC50 (Leucine aminopeptidase): 13.3 µM (active)
IC50 [2]: 35.8 µM (active)

c1ccc(CC2CCN(c3ncnc4sc5c(c34)CCCC5)CC2)cc1
IC50 [3]: > 55.7 µM (inactive)
IC50 [4]: > 55.7 µM (inactive)

Fc1ccccc1NC1=NN=C(c2ccccc2)CS1
EC50 (Hexokinase-1): 29.7 µM (inactive)
EC50 (Streptococcus): 9 µM (active)
EC50 (Hexokinase HKDC1): 20.2 µM (inactive)
EC50 (Streptokinase A): > 150 µM (not active)
EC50 [5]: 4.31 µM (active)
AC50 (INS1): 7.51 µM (active)
AC50 [6]: 33.5 µM (active)
AC50 [7]: 11.1 µM (active)

O=C(NC(NC(=S)Nc1c(Cl)cccc1Cl)C(Cl)(Cl)Cl)OCc1ccccc1 (stereo not drawn)
EC50 [8]: > 32 µM (inactive)
EC50 (Beta-galactosidase): > 31.5 µM (inactive)
IC50 [9]: 1.15 µM (active)
IC50 [10]: 0.74 µM (active)
EC50 (Streptococcus): 18 µM (active)
EC50 (Mu-type opioid receptor [11]): > 32 µM (inactive)
IC50 [12]: 90 µM (active)
IC50 [13]: 63 µM (active)
IC50 [14]: 3.48 µM (active)
IC50 [15]: > 32 µM (inactive)
EC50 (Streptokinase A): 3.01 µM (active)
EC50 [5]: 1.65 µM (active)
EC50 [16]: > 32 µM (inactive)
IC50 [17]: 2.04 µM
IC50 (Mu-type opioid receptor [18]): 8.43 µM (active)
